Measured values: article PMC9671962 (Communications Biology, 2022)
“And” between values parts separate entries of the source, which are not always exact repeats. Equal entries are not always repeated.

Experiments:
[1] = Biodistribution in healthy CB57/BL6 mice with estimated human dosimetry (OLINDA/EXM); type: in vivo
Experimental: Using female mice was justified due to the lack of sex-related differences observed from initial dose-finding studies. […] At various time points mice were euthanized and tissues were harvested, weighed, and assayed for radioactivity by gamma counter. Decay corrected data is presented as percent injected dose per gram of tissue (%ID/g). […]
(§1) Animal studies were performed in female mice due to the lack of sex-related differences for [^211At]PTT tolerability from initial dose response studies performed in female and male mice. Female mice were chosen due to their underlying behavior towards other study subjects that reduced nonstudy-related causes for decreased wellness. Pre-clinical efficacy studies were performed through “single mouse testing” to more closely recapitulate a clinical trial. […] Number size for treatment groups was determined by model tumor growth reproducibility, which was previously shown to have less than 5% normal variation with at least two animals. Statistical tests for tumor response and event-free survival (EFS) were performed as a grouped analysis that included all tumor models treated at each respective dose level (n = 2 per model per dose level). Statistical differences between treatment groups for tumor response was performed by paired-model T-test that compared reduction in tumor volume for the 36 MBq/kg dose level vs. 24 MBq/kg or 12 MBq/kg. Event free survival was measured by area over the curve method to quantify time to event, which was set as tumor growth exceeding 2 cm[3],[19]. Differences in EFS were tested across all treated models for each respective dose level, and against untreated controls, by paired-model ANOVA analysis. Associations of drug target expression and response were performed by linear regression analysis of EFS and PARP1 mRNA expression. Genetic signatures were visually presented as a function of EFS and no statistical tests were applied. Blood and marrow toxicity studies were performed with n = 5 sample sizes and powered to detect >20% differences between untreated controls and treated animals. Results were tested for significance by one-way ANOVA comparison from untreated controls. Marrow colony formation assays were performed in replicates of 2 for each mouse subject, dependent on marrow isolation, and all replicates are included in final analyses. Statistical analysis was performed by ordinary one-way ANOVA comparison between the mean of control and test groups. Biodistribution studies were performed with n = 3 mice per time-point. Human dosimetry was calculated using OLINDA/EXM v1.1 software by fitting time activity curves for biodistribution data in a healthy mouse model. Tumor dosimetry was calculated by OLINDA/EXM v1.1 by fitting time activity curves for NB-EBC1 tumors from biodistribution data. All statistical analyses were performed in GraphPad Prism version 9.3.1 unless indicated otherwise.

[2] = test system: NB-EBC1x tumor; test: Biodistribution, autoradiography and tumor dosimetry in NB-EBC1x tumor-bearing mice; type: in vivo, female SCID CB17 mice; details: for %Injected Dose/gram, tumor: NB-EBC1 tumor, single mouse
Experimental: At various time points mice were euthanized and tissues were harvested, weighed, and assayed for radioactivity by gamma counter. Decay corrected data presented as percent injected dose per gram of tissue (%ID/g). Human dosimetry was calculated using OLINDA/EXM software by fitting time activity curves for biodistribution data. Tissue autoradiography was performed by freezing excised tumors at 1 h postinjection of each respective treatment. One tumor was collected for each treatment group. Tumors were cryosectioned (Leica Cryotome) at a thickness of 20 µm. Each section was collected with a 200 µm gap and a total of three sections were collected for each tumor. Sections were then exposed to a phosphorfilm for 60 h and films were read on a Cyclone Plus phosphorimager (Perkin Elmer). Experimental conditions have been included in the Supplementary Methods.
as §1

[3] = 1-year-old, from CB57/BL6 mouse biodistribution
[4] = 5-year-old, from CB57/BL6 mouse biodistribution

Question: For `O=C1NCCn2c(-c3ccc([211At])cc3)nc3cccc1c32` [[^211At]PTT, Astatine-211-parthanatine], which “marrow dose per dose fraction” value ([1]; 0.02 kg mouse, 36 MBq/kg) is on record?
Answer: Its value is “approximately 2.5 Gy”.

Question: What about the “Estimated human dosimetry, Adrenals” value [1, 3] of the same compound?
Answer: The value was 0.005 Gy per MBq/kg.

Question: And the “Estimated human dosimetry, Brain” value [1, 3]?
Answer: The value was 0.002 Gy per MBq/kg.

Question: And the “Estimated human dosimetry, Breasts” value [1, 3]?
Answer: The value was 0.005 Gy per MBq/kg.

Question: And the “Estimated human dosimetry, Gallbladder” value [1, 3]?
Answer: The value was 0.005 Gy per MBq/kg.

Question: And the “Estimated human dosimetry, Heart” value [1, 3]?
Answer: Its value is 0.017 Gy per MBq/kg and 0.026 Gy per MBq/kg and 0.020 Gy per MBq/kg.

Question: And the “Estimated human dosimetry, Kidneys” value [1, 3]?
Answer: Its value is 0.021 Gy per MBq/kg and 0.034 Gy per MBq/kg and 0.028 Gy per MBq/kg.

Question: What about the “Estimated human dosimetry, Left Colon” value [1, 3] of the same compound?
Answer: Its value is 0.005 Gy per MBq/kg and 0.006 Gy per MBq/kg.

Question: What about the “Estimated human dosimetry, Liver” value [1, 3] of the same compound?
Answer: Its value is 0.019 Gy per MBq/kg and 0.018 Gy per MBq/kg and 0.033 Gy per MBq/kg.

Question: What about the “Estimated human dosimetry, Muscle” value [1, 3] of the same compound?
Answer: The value was 0.008 Gy per MBq/kg and 0.016 Gy per MBq/kg.

Question: And the “Estimated human dosimetry, Ovaries” value [1, 3]?
Answer: Its value is 0.005 Gy per MBq/kg.

Question: And the “Estimated human dosimetry, Red Marrow” value [1, 3]?
Answer: The value was 0.070 Gy per MBq/kg and 0.091 Gy per MBq/kg and 0.065 Gy per MBq/kg and 0.073 Gy per MBq/kg.

Question: What about the “Estimated human dosimetry, Right Colon” value [1, 3] of the same compound?
Answer: Its value is 0.005 Gy per MBq/kg and 0.006 Gy per MBq/kg.

Question: And the “Estimated human dosimetry, Skin” value [1, 3]?
Answer: The value was 0.005 Gy per MBq/kg.

Question: And the “Estimated human dosimetry, Small Intestine” value [1, 3]?
Answer: The value was 0.005 Gy per MBq/kg.

Question: And the “Estimated human dosimetry, Spleen” value [1, 3]?
Answer: Its value is 0.061 Gy per MBq/kg and 0.070 Gy per MBq/kg and 0.084 Gy per MBq/kg and 0.051 Gy per MBq/kg.

Question: What about the “Estimated human dosimetry, Stomach” value [1, 3] of the same compound?
Answer: The value was 0.005 Gy per MBq/kg.

Question: And the “Estimated human dosimetry, Testes” value [1, 3]?
Answer: Its value is 0.005 Gy per MBq/kg.

Question: And the “Estimated human dosimetry, Thymus” value [1, 3]?
Answer: The value was 0.005 Gy per MBq/kg.

Question: And the “Estimated human dosimetry, Total Body” value [1, 3]?
Answer: Its value is 0.009 Gy per MBq/kg and 0.010 Gy per MBq/kg and 0.011 Gy per MBq/kg.

Question: What about the “Estimated human dosimetry, Urinary Bladder” value [1, 3] of the same compound?
Answer: Its value is 0.005 Gy per MBq/kg.

Question: What about the “Estimated human dosimetry, Uterus” value [1, 3] of the same compound?
Answer: The value was 0.005 Gy per MBq/kg.

Question: And the “Estimated human dosimetry, Adrenals” value [1, 4]?
Answer: The value was 0.004 Gy per MBq/kg and 0.005 Gy per MBq/kg.

Question: What about the “Estimated human dosimetry, Brain” value [1, 4] of the same compound?
Answer: Its value is 0.002 Gy per MBq/kg and 0.001 Gy per MBq/kg.

Question: What about the “Estimated human dosimetry, Breasts” value [1, 4] of the same compound?
Answer: Its value is 0.004 Gy per MBq/kg and 0.005 Gy per MBq/kg.

Question: What about the “Estimated human dosimetry, Gallbladder” value [1, 4] of the same compound?
Answer: Its value is 0.004 Gy per MBq/kg and 0.005 Gy per MBq/kg.

Question: And the “Estimated human dosimetry, Heart” value [1, 4]?
Answer: Its value is 0.015 Gy per MBq/kg and 0.016 Gy per MBq/kg and 0.024 Gy per MBq/kg and 0.018 Gy per MBq/kg.

Question: What about the “Estimated human dosimetry, Kidneys” value [1, 4] of the same compound?
Answer: Its value is 0.018 Gy per MBq/kg and 0.029 Gy per MBq/kg and 0.023 Gy per MBq/kg.

Question: And the “Estimated human dosimetry, Left Colon” value [1, 4]?
Answer: The value was 0.004 Gy per MBq/kg and 0.005 Gy per MBq/kg.

Question: And the “Estimated human dosimetry, Ovaries” value [1, 4]?
Answer: The value was 0.004 Gy per MBq/kg and 0.005 Gy per MBq/kg.

Question: What about the “Estimated human dosimetry, Red Marrow” value [1, 4] of the same compound?
Answer: Its value is 0.074 Gy per MBq/kg and 0.069 Gy per MBq/kg and 0.093 Gy per MBq/kg and 0.066 Gy per MBq/kg.

Question: What about the “Estimated human dosimetry, Right Colon” value [1, 4] of the same compound?
Answer: Its value is 0.004 Gy per MBq/kg and 0.005 Gy per MBq/kg.

Question: And the “Estimated human dosimetry, Skin” value [1, 4]?
Answer: Its value is 0.004 Gy per MBq/kg and 0.005 Gy per MBq/kg.

Question: What about the “Estimated human dosimetry, Small Intestine” value [1, 4] of the same compound?
Answer: Its value is 0.004 Gy per MBq/kg and 0.005 Gy per MBq/kg.

Question: And the “Estimated human dosimetry, Spleen” value [1, 4]?
Answer: The value was 0.055 Gy per MBq/kg and 0.063 Gy per MBq/kg and 0.076 Gy per MBq/kg and 0.049 Gy per MBq/kg.

Question: What about the “Estimated human dosimetry, Stomach” value [1, 4] of the same compound?
Answer: The value was 0.004 Gy per MBq/kg and 0.005 Gy per MBq/kg.

Question: What about the “Estimated human dosimetry, Testes” value [1, 4] of the same compound?
Answer: Its value is 0.004 Gy per MBq/kg and 0.005 Gy per MBq/kg.

Question: And the “Estimated human dosimetry, Thymus” value [1, 4]?
Answer: The value was 0.004 Gy per MBq/kg and 0.005 Gy per MBq/kg.

Question: And the “Estimated human dosimetry, Total Body” value [1, 4]?
Answer: Its value is 0.009 Gy per MBq/kg and 0.011 Gy per MBq/kg.

Question: What about the “Estimated human dosimetry, Urinary Bladder” value [1, 4] of the same compound?
Answer: The value was 0.004 Gy per MBq/kg and 0.005 Gy per MBq/kg.

Question: And the “Estimated human dosimetry, Uterus” value [1, 4]?
Answer: Its value is 0.004 Gy per MBq/kg and 0.005 Gy per MBq/kg.

Question: And the “predicted kidney dose scaled for an adult” value ([1]; derived from the mouse model)?
Answer: Its value is 0.34–0.44 mGy/MBq.

Question: What about the predicted kidney dose ([1]; extrapolated from mouse biodistribution to a 1-year-old human phantom) of the same compound?
Answer: Its predicted kidney dose is 0.026 Gy per MBq/kg.

Question: What about the average tumor dose ([2]; 1-year-old phantom, derived from NB-EBC1 tumor-bearing mouse model) of the same compound?
Answer: The average tumor dose was 0.060 Gy per MBq/kg.

Question: What about the “thyroid uptake with co-administration of potassium iodide” value ([2]; 1 h) of the same compound?
Answer: The value was “partially blocked”.

Question: What about the “Absorbed Dose, Tumor” value ([2]; NB-EBC1 tumor-bearing CB57 SCID mice, three values) of the same compound?
Answer: Its value is 4.5716 cGy/MBq/kg and 5.9806 cGy/MBq/kg and 7.417 cGy/MBq/kg.

Question: What about the “%Injected Dose/gram, tumor” value ([2]; time point 0.5) of the same compound?
Answer: The value was 2.4065 %ID/g and 3.551 %ID/g and 6.66 %ID/g.

Question: And the “%Injected Dose/gram, tumor” value ([2]; time point 1)?
Answer: The value was 8.705 %ID/g and 13.3276 %ID/g and 24.86 %ID/g.

Question: And the “%Injected Dose/gram, tumor” value ([2]; time point 6)?
Answer: Its value is 7.986 %ID/g and 8.236 %ID/g and 8.192 %ID/g.

Question: And the “%Injected Dose/gram, tumor” value ([2]; time point 24)?
Answer: Its value is 0.008485 %ID/g and 1.144 %ID/g and 1.578 %ID/g.

Question: What about the “tumor penetrance by ex-vivo autoradiography” value ([2]; NB-EBC1 tumors, 1 h postinjection) of the same compound?
Answer: Its value is “high tumor penetrance”.

Question: What about the “tumor dosimetry (estimated)” value ([2]; NB-EBC1x tumor-bearing mouse model) of the same compound?
Answer: Its value is 6 cGy/MBq/kg.

Question: What about the “cumulative absorbed dose to tumor” value ([2]; NB-EBC1x, after 4 dose fractions of 36 MBq/kg) of the same compound?
Answer: Its value is 8.6 Gy.

Question: And the “absorbed dose to tumor per dose fraction” value ([2]; NB-EBC1x, per 36 MBq/kg dose)?
Answer: Its value is 2.15 Gy.

Question: And the “biological half-life in tumor” value ([2]; seen in mice in the present study)?
Answer: Its value is 5.1 hr.
